According to patent US11629201B2, “PSMA-binding agents and uses thereof” (ITM Isotope Technologies Munich SE, priority 2017, dated 2023):

Test system: PC-3 PIP/flu tumor-bearing mice
Assay: Biodistribution studies in PC-3 PIP/flu tumor-bearing mice
Settings: for Tumor-to-blood / Tumor-to-kidney / Tumor-to-liver: PC-3 PIP tumor

O=C(O)CCC(NC(=O)NC(CCCCNC(=O)C(Cc1ccc2ccccc2c1)NC(=O)C1CCC(CNC(=O)C(CCCCNC(=O)CCCc2ccc(I)cc2)NC(=O)CN2CCN(CC(=O)O)CCN(CC(=O)O)CCN(CC(=O)O)CC2)CC1)C(=O)O)C(=O)O (stereo not shown) [^177Lu-PSMA-ALB-03, metal not drawn]
Tumor-to-blood (1 h p.i.): 0.31 ± 0.04
Tumor-to-kidney (1 h p.i.): 0.48 ± 0.07
Tumor-to-liver (1 h p.i.): 1.64 ± 0.61
Blood (4 h p.i.): 24.3 ± 3.60 % IA/g
Bone (4 h p.i.): 2.47 ± 0.39 % IA/g
Heart (4 h p.i.): 8.54 ± 1.18 % IA/g
Intestines (4 h p.i.): 3.71 ± 1.09 % IA/g
Kidneys (4 h p.i.): 24.5 ± 4.38 % IA/g
Liver (4 h p.i.): 4.56 ± 1.18 % IA/g
Lung (4 h p.i.): 14.21 ± 3.49 % IA/g
Muscle (4 h p.i.): 2.04 ± 0.37 % IA/g
PC-3 PIP Tumor (4 h p.i.): 19.9 ± 0.79 % IA/g
PC-3 flu Tumor (4 h p.i.): 5.32 ± 1.06 % IA/g
Salivary glands (4 h p.i.): 5.02 ± 1.17 % IA/g
Spleen (4 h p.i.): 4.76 ± 1.12 % IA/g
Stomach (4 h p.i.): 2.86 ± 1.03 % IA/g
Tumor-to-blood (4 h p.i.): 0.83 ± 0.10
Tumor-to-kidney (4 h p.i.): 0.83 ± 0.14
Tumor-to-liver (4 h p.i.): 4.60 ± 1.34
Blood (8 h p.i.): 23.5 ± 0.74 % IA/g
Bone (8 h p.i.): 2.71 ± 0.21 % IA/g
Heart (8 h p.i.): 8.12 ± 0.46 % IA/g
Intestines (8 h p.i.): 3.70 ± 0.40 % IA/g
Kidneys (8 h p.i.): 28.8 ± 1.49 % IA/g
Liver (8 h p.i.): 4.87 ± 0.42 % IA/g
Lung (8 h p.i.): 12.21 ± 1.32 % IA/g
Muscle (8 h p.i.): 2.01 ± 0.10 % IA/g
PC-3 PIP Tumor (8 h p.i.): 31.0 ± 5.79 % IA/g
PC-3 flu Tumor (8 h p.i.): 5.98 ± 0.91 % IA/g
Salivary glands (8 h p.i.): 5.49 ± 0.59 % IA/g
Spleen (8 h p.i.): 4.10 ± 0.14 % IA/g
Stomach (8 h p.i.): 2.92 ± 0.17 % IA/g
Tumor-to-blood (8 h p.i.): 1.32 ± 0.29
Tumor-to-kidney (8 h p.i.): 1.07 ± 0.18
Tumor-to-liver (8 h p.i.): 6.38 ± 1.28
Blood (24 h p.i.): 17.3 ± 1.38 % IA/g
Bone (24 h p.i.): 2.02 ± 0.31 % IA/g
Heart (24 h p.i.): 6.60 ± 1.01 % IA/g
Intestines (24 h p.i.): 2.19 ± 0.23 % IA/g
Kidneys (24 h p.i.): 24.7 ± 1.85 % IA/g
Liver (24 h p.i.): 3.35 ± 0.26 % IA/g
Lung (24 h p.i.): 9.86 ± 0.57 % IA/g
Muscle (24 h p.i.): 1.61 ± 0.18 % IA/g
PC-3 PIP Tumor (24 h p.i.): 53.8 ± 5.61 % IA/g
PC-3 flu Tumor (24 h p.i.): 5.47 ± 0.67 % IA/g
Salivary glands (24 h p.i.): 4.69 ± 0.33 % IA/g
Spleen (24 h p.i.): 3.75 ± 0.21 % IA/g
Stomach (24 h p.i.): 1.39 ± 0.27 % IA/g
Tumor-to-blood (24 h p.i.): 3.13 ± 0.35
Tumor-to-kidney (24 h p.i.): 2.17 ± 0.06
Tumor-to-liver (24 h p.i.): 16.1 ± 1.75
Blood (48 h p.i.): 12.5 ± 3.78 % IA/g
Bone (48 h p.i.): 1.63 ± 0.56 % IA/g
Heart (48 h p.i.): 4.40 ± 1.18 % IA/g
Intestines (48 h p.i.): 1.73 ± 0.50 % IA/g
Kidneys (48 h p.i.): 22.6 ± 2.69 % IA/g
Liver (48 h p.i.): 2.53 ± 0.77 % IA/g
Lung (48 h p.i.): 7.45 ± 2.06 % IA/g
Muscle (48 h p.i.): 1.32 ± 0.41 % IA/g
PC-3 PIP Tumor (48 h p.i.): 72.3 ± 24.7 % IA/g
PC-3 flu Tumor (48 h p.i.): 5.69 ± 3.65 % IA/g
Salivary glands (48 h p.i.): 3.45 ± 1.09 % IA/g
Spleen (48 h p.i.): 3.79 ± 0.89 % IA/g
Stomach (48 h p.i.): 1.49 ± 0.48 % IA/g
Tumor-to-blood (48 h p.i.): 5.94 ± 1.53
Tumor-to-kidney (48 h p.i.): 3.17 ± 0.84
Tumor-to-liver (48 h p.i.): 29.0 ± 5.26
Blood (96 h p.i.): 7.37 ± 0.64 % IA/g
Bone (96 h p.i.): 1.07 ± 0.27 % IA/g
Heart (96 h p.i.): 3.15 ± 0.28 % IA/g
Intestines (96 h p.i.): 1.21 ± 0.26 % IA/g
Kidneys (96 h p.i.): 16.1 ± 1.69 % IA/g
Liver (96 h p.i.): 1.78 ± 0.03 % IA/g
Lung (96 h p.i.): 5.56 ± 0.54 % IA/g
Muscle (96 h p.i.): 0.91 ± 0.15 % IA/g
PC-3 PIP Tumor (96 h p.i.): 75.7 ± 2.46 % IA/g
PC-3 flu Tumor (96 h p.i.): 3.52 ± 0.54 % IA/g
Salivary glands (96 h p.i.): 2.19 ± 0.1 % IA/g
Spleen (96 h p.i.): 3.23 ± 0.53 % IA/g
Stomach (96 h p.i.): 0.91 ± .010 % IA/g
Tumor-to-blood (96 h p.i.): 10.3 ± 0.57
Tumor-to-kidney (96 h p.i.): 4.7 ± 0.38
Tumor-to-liver (96 h p.i.): 42.6 ± 1.90
Blood (144 h p.i.): 6.02 ± 0.60 % IA/g
Bone (144 h p.i.): 1.14 ± 0.23 % IA/g
Heart (144 h p.i.): 2.55 ± 0.25 % IA/g
Intestines (144 h p.i.): 0.88 ± 0.18 % IA/g
Kidneys (144 h p.i.): 11.2 ± 3.82 % IA/g
Liver (144 h p.i.): 1.50 ± 0.14 % IA/g
Lung (144 h p.i.): 4.99 ± 1.00 % IA/g
Muscle (144 h p.i.): 0.54 ± 0.07 % IA/g
PC-3 PIP Tumor (144 h p.i.): 68.9 ± 8.80 % IA/g
PC-3 flu Tumor (144 h p.i.): 2.77 ± 0.41 % IA/g
Salivary glands (144 h p.i.): 1.67 ± 0.27 % IA/g
Spleen (144 h p.i.): 2.94 ± 0.39 % IA/g
Stomach (144 h p.i.): 0.73 ± 0.10 % IA/g
Tumor-to-blood (144 h p.i.): 11.4 ± 0.47
Tumor-to-kidney (144 h p.i.): 6.44 ± 1.27
Tumor-to-liver (144 h p.i.): 46.0 ± 2.53
Blood (192 h p.i.): 5.29 ± 0.18 % IA/g
Bone (192 h p.i.): 0.83 ± 0.22 % IA/g
Heart (192 h p.i.): 2.08 ± 0.14 % IA/g
Intestines (192 h p.i.): 0.96 ± 0.03 % IA/g
Kidneys (192 h p.i.): 7.35 ± 0.92 % IA/g
Liver (192 h p.i.): 1.25 ± 0.20 % IA/g
Lung (192 h p.i.): 4.17 ± 0.68 % IA/g
Muscle (192 h p.i.): 0.62 ± 0.04 % IA/g
PC-3 PIP Tumor (192 h p.i.): 58.9 ± 12.4 % IA/g
PC-3 flu Tumor (192 h p.i.): 2.42 ± 0.23 % IA/g
Salivary glands (192 h p.i.): 1.55 ± 0.06 % IA/g
Spleen (192 h p.i.): 3.13 ± 0.90 % IA/g
Stomach (192 h p.i.): 0.78 ± 0.07 % IA/g
Tumor-to-blood (192 h p.i.): 11.1 ± 1.97
Tumor-to-kidney (192 h p.i.): 7.97 ± 0.70
Tumor-to-liver (192 h p.i.): 47.1 ± 2.44
